[ ]: non-standard residue; d: D form. The star is where a group is joined. N3 = [N-]=[N+]=N*; βAla = NCCC(=O)O
How the values were obtained:
various tumor cell lines = conditions: cited from earlier work
[1] = system: native, glycosylated antibody trastuzumab (anti Her2 IgG); assay: MTG-mediated conjugation of peptide linkers to native glycosylated trastuzumab, conjugation efficiency by LC-MS under reducing conditions; type: biochemical; conditions: for Conjugation efficiency (%) to antibody: trastuzumab 5 mg/mL, 20 molar equivalents linker, 50 mM Tris pH 7.6; for Conjugation efficiency (%) to antibody / Conjugation efficiency (%) Trastuzumab with conditions 3: MTG 3 U/mg, 24 hours at 37° C.; for Conjugation efficiency (%) antibody with conditions 2: conditions 2: trastuzumab 1 mg/mL, MTG 6 U/mg, 80 molar equivalents linker, 20 hours at 37° C.; for Conjugation efficiency (%) Trastuzumab with conditions 3: conditions 3: 5 mg/mL antibody, 5 molar equivalents linker
Method: (§1) Linkers are used as obtained and dissolved at a suitable stock concentration (e.g. 25 mM) following the manufacturers instruction, aliquots are prepared and stored at −20° C. Two antibodies of IgG-subclass (antibody 1: anti Her2 IgG1, antibody 2: anti CD38 IgG1) are modified as follows: 5 mg/mL of non-deglycosylated antibody (˜33.33 μM) is mixed with 20 molar equivalents of amino acid-based linker (i.e. ˜667 μM), 3 U/mg of antibody and a suitable buffer. The reaction mixture is incubated for 20 h at 37° C. and then subjected for LC-MS analysis under reducing conditions. Other reaction conditions have been used as indicated in the corresponding example.
(§2) For conjugation of the peptide linkers (see FIG. 2 for structures), 5 mg/mL of native, glycosylated monoclonal antibody in 50 mM Tris pH 7.6, microbial transglutaminase (MTG, Zedira) at a concentration of 3 U/mg in 50 mM Tris pH 7.6 or water, and 20 molar equivalents of the indicated peptide linker were used and incubated for 24 hours at 37° C. in a rotating thermomixer. Conjugation efficiency was assessed by LC-MS under DTT reduced conditions. Reduction of samples was achieved by incubation of antibody-linker-conjugates (ALCs) for 15 min at 37° C. in 50 mM DTT (final) and 50 mM Tris buffer. Probes were analyzed on a Xevo G2-XS QTOF (Waters) coupled to an Acquity UPLC H-Class System (Waters) and an ACQUITY UPLC BEH C18 Column. Conjugation efficiency (CE) was calculated from deconvoluted spectra and presented in %. Intensities resulting from both glycoforms (G1F and G0F) were taken into account for the calculation, according to the formula: […]
For conjugation of the peptide linkers (see FIG. 2 for structures), 1 mg/mL of native, glycosylated monoclonal antibody in 50 mM Tris pH 7.6, microbial transglutaminase (MTG, Zedira) at a concentration of 6 U/mg in 50 mM Tris pH 7.6 or water, and 80 molar equivalents of the indicated peptide linker were used and incubated for 20 hours at 37° C. in a rotating thermomixer. These are defined as “conditions 2”. Conjugation efficiency was assessed by LC-MS under DTT reduced conditions. Reduction of samples was achieved by incubation of antibody-linker-conjugates (ALCs) for 15 min at 37° C. in 50 mM DTT (final) and 50 mM Tris buffer. Probes were analyzed on a Xevo G2-XS QTOF (Waters) coupled to an Acquity UPLC H-Class System (Waters) and a ACQUITY UPLC BEH C18 Column. Conjugation efficiency (CE) was calculated from deconvoluted spectra and presented in %. Intensities resulting from both glycoforms (G1F and G0F) were taken into account for the calculation, according to the formula: […]
(§3) For conjugation of the peptide linkers (see FIG. 2 for structures), 5 mg/mL of native, glycosylated monoclonal antibody in 50 mM Tris pH 7.6, microbial transglutaminase (MTG, Zedira) at a concentration of 3 U/mg in 50 mM Tris pH 7.6 or water, and 5 molar equivalents of the indicated peptide linker were used and incubated for 24 hours at 37° C. in a rotating thermomixer. These are defined as “conditions 3”. Conjugation efficiency was assessed by LC-MS under DTT reduced conditions. Reduction of samples was achieved by incubation of antibody-linker-conjugates (ALCs) for 15 min at 37° C. in 50 mM DTT (final) and 50 mM Tris buffer. Probes were analyzed on a Xevo G2-XS QTOF (Waters) coupled to an Acquity UPLC H-Class System (Waters) and a ACQUITY UPLC BEH C18 Column. Conjugation efficiency (CE) was calculated from deconvoluted spectra and presented in %. Intensities resulting from both glycoforms (G1F and G0F) were taken into account for the calculation, according to the formula: […]

[2] = system: native, glycosylated antibody daratumumab (anti CD38 IgG); assay: MTG-mediated conjugation of peptide linkers to native glycosylated daratumumab, conjugation efficiency by LC-MS under reducing conditions; type: biochemical; conditions: MTG 3 U/mg, 24 hours at 37° C.; for Conjugation efficiency (%) Daratumumab with conditions 3: conditions 3: 5 mg/mL antibody, 5 molar equivalents linker; for Conjugation efficiency (%) to antibody: daratumumab 5 mg/mL, 20 molar equivalents linker, 50 mM Tris pH 7.6
Method: as §1, §2, §3

[3] = target: DNA-dependent RNA polymerase II (Homo sapiens, UniProt P24928); conditions: read-out: KD of the complex between amanitin and RNA-polymerase II; cited from earlier work

Compound | IC50, cytostatic effects on various tumor cell lines (various tumor cell lines) | Conjugation efficiency (%) to antibody [1] [%] | Conjugation efficiency (%) Daratumumab with conditions 3 [2] [%] | Conjugation efficiency (%) to antibody [2] [%] | Conjugation efficiency (%) antibody with conditions 2 [1] [%] | Conjugation efficiency (%) Trastuzumab with conditions 3 [1] [%] | Kd [3] [nM]
CC[C@H](C)[C@H](NC(=O)[C@H]1CCCCN1C)C(=O)N(COC(=O)CC(C)C)[C@H](C[C@@H](OC(C)=O)c1nc(C(=O)N[C@@H](Cc2ccc(O)cc2)C[C@H](C)C(=O)O)cs1)C(C)C [Tubulysin A] | picomolar range | – | – | – | – | – | –
AARK(N3)-NH2 [reference compound] | – | 0 | – | – | – | – | –
LGRC-NH2 [reference compound] | – | 0 | – | – | – | – | –
NH2-C1-ARK(N3)-NH2 (GARK; HELM PEPTIDE1{G.A.R.[[N-]=[N+]=NCCCC[C@H](N[*:1])C(=O)[*:2]].[am]}$$$$V2.0; SMILES C[C@H](NC(=O)CN)C(=O)N[C@@H](CCCNC(=N)N)C(=O)N[C@@H](CCCCN=[N+]=[N-])C(N)=O) [NT28] | – | 89 | – | – | – | – | –
NH2-C1-GRK(N3)-NH2 (GGRK; HELM PEPTIDE1{G.G.R.[[N-]=[N+]=NCCCC[C@H](N[*:1])C(=O)[*:2]].[am]}$$$$V2.0; SMILES [N-]=[N+]=NCCCC[C@H](NC(=O)[C@H](CCCNC(=N)N)NC(=O)CNC(=O)CN)C(N)=O) [NT24] | – | 99 | 89 | 95 | 78 | 97 | –
NH2-C2-GRK(N3)-NH2 (H-[βAla]GRK(N3)-NH2) [NT37] | – | 70 | – | – | 38 | – | –
NH2-C3-GRK(N3)-NH2 [NT38] | – | 53 | – | – | 36 | – | –
NH2-C4-GRK(N3)-NH2 [NT41] | – | 99 | 88 | 98 | 70 | 88 | –
NH2-C4-ValArg-NH2 [NT40] | – | 96 | 51 | 89 | 83 | 58 | –
NH2-C4-ValCit-NH2 [NT39] | – | 67 | – | – | 63 | – | –
NH2-C5-GRK(N3)-NH2 [NT36] | – | 84 | 72 | 93 | 56 | 75 | –
NH2-C5-ValArg-NH2 [NT44] | – | 100 | 73 | 95 | 88 | 77 | –
NH2-C5-ValCit-NH2 [NT43] | – | 83 | – | – | 79 | – | –
NH2-C6-AspArg-NH2 [NT66] | – | 64 | – | 66 | – | – | –
NH2-C6-GRK(N3)-NH2 [NT42] | – | 67 | – | – | 38 | – | –
NH2-C6-IleArg-NH2 [NT65] | – | 96 | 79 | 95 | – | 78 | –
NH2-C6-ThrArg-NH2 [NT64] | – | 95 | 92 | 93 | – | 92 | –
NH2-C6-TrpArg-NH2 [NT67] | – | 82 | – | 83 | – | – | –
RGRK(N3)-NH2 [reference compound] | – | 0 | – | – | – | – | –
SAGRK(N3)-NH2 [reference compound] | – | 0 | – | – | – | – | –
VGRC-NH2 [reference compound] | – | 0 | – | – | – | – | –
amanitin | – | – | – | – | – | – | 3
